In patent publication US6329421A, “Diaryl bicyclic heterocycles as inhibitors of cyclooxygenase-2” (Merck Frosst Canada & Co., priority 1997, dated 2001):

Columns and labels:
[1] = biological target: T1, cyclooxygenase-2 (Homo sapiens, UniProt P35354); experiment: Inhibition of cyclooxygenase activity: Cox-2 (PGE2 production in response to arachidonic acid, radioimmunoassay; human osteosarcoma 143 cells); assay type: cell-based; conditions: read-out: Cox-2% inhib.; for inhibition at 0.1 µM: Conc. 100 nM; for inhibition at 1 µM: Conc. 1000 nM
T1 construct: human osteosarcoma 143 cells (which specifically express cyclooxygenase-2); endogenous in cells; host or cells: human osteosarcoma 143 cells
T1 sequence (P35354 18-604): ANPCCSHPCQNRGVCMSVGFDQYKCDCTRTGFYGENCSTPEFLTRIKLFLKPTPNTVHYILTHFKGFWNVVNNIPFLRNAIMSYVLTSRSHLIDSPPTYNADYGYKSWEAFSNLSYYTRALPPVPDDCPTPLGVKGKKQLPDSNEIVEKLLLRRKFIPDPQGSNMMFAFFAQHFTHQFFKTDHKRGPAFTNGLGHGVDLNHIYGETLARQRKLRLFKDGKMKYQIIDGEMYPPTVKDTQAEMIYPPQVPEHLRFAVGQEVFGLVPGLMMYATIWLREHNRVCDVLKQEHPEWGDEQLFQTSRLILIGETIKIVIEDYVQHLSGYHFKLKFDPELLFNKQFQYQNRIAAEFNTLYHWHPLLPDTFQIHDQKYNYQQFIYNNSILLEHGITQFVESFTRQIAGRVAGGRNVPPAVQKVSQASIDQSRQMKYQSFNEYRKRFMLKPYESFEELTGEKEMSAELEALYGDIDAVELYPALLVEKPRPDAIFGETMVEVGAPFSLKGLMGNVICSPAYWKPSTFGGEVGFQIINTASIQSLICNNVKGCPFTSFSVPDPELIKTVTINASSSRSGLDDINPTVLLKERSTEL
Description: (§1) Compounds were tested as inhibitors of cyclooxygenase activity in whole cell and microsomal cyclooxygenase assays. Both of these assays measured prostaglandin E2 synthesis in response to arachidonic acid, using a radioimmunoassay. Cells used for whole cell assays, and from which microsomes were prepared for microsomal assays, were human osteosarcoma 143 cells (which specifically express cyclooxygenase-2) and human U-937 cells (which specifically express cyclooxygenase-1). In these assays, 100% activity is defined as the difference between prostaglandin E2 synthesis in the absence and presence of arachidonate addition. Compounds of the present invention are inhibitors of cyclooxygenase-2 and are thereby useful in the treatment of cyclooxygenase-2 mediated diseases as enumerated above. The activities of the compounds against cyclooxygenase may be seen in the representative results shown below. In the assay, inhibition is determined by measuring the amount of prostaglandin E2 (PGE2) synthesized in the presence of arachidonic acid, cyclooxygenase-1 or cyclooxygenase-2 and a putative inhibitor. The IC50 values represent the concentration of putative inhibitor required to return PGE2 synthesis to 50% of that obtained as compared to the uninhibited control. For purposes of this specification, a compound is a selective inhibitor of COX-2 over COX-1 if the ratio of IC50 's for COX-1: COX-2 is 100 or greater, preferably 500 or greater. The results for inhibition of PGE2 production may be seen in Table III.

[2] = biological target: T2, cyclooxygenase-1 (Homo sapiens, UniProt P23219); experiment: Inhibition of cyclooxygenase activity: Cox-1 (PGE2 production in response to arachidonic acid, radioimmunoassay; human U-937 cells); assay type: cell-based; conditions: read-out: Cox-1% inhib.; for inhibition at 1 µM: Conc. 1000 nM; for inhibition at 0.1 µM: Conc. 100 nM
T2 construct: human U-937 cells (which specifically express cyclooxygenase-1); endogenous in cells; host or cells: human U-937 cells
Description: as §1

T2 sequence (P23219 24-599): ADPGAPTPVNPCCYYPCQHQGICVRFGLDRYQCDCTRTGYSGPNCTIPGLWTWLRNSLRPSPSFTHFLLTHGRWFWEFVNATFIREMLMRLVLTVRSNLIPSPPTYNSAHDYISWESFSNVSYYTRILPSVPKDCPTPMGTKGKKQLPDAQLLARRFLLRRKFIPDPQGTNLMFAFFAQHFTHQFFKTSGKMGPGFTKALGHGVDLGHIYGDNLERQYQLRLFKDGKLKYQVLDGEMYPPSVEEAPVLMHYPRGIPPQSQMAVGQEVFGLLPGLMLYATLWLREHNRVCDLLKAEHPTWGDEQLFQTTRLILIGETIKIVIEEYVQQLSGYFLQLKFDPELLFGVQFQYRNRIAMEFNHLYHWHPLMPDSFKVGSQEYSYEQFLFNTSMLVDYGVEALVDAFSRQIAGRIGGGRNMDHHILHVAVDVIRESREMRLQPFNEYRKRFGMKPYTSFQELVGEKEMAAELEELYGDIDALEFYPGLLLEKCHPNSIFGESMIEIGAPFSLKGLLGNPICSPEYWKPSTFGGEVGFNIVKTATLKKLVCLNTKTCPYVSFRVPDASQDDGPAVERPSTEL

| Compound | inhibition at 0.1 µM [1] | inhibition at 1 µM [1] | inhibition at 1 µM [2] | inhibition at 0.1 µM [2] | further results |
| --- | --- | --- | --- | --- | --- |
| CS(=O)(=O)c1ccc(-c2c(-c3ccccc3)oc3ccccc23)cc1 [Example 1, 3-(4-(Methylsulfonyl)phenyl)-2-phenylbenzo[b]furan] | 94% |  |  | 0% |  |
| CS(=O)(=O)c1ccc(-c2[nH]c3ccccc3c2-c2ccc(F)cc2)cc1 [Example 5, 3-(4-Fluorophenyl)-2-(4-(methylsulfonyl)phenyl)indole] | 86% |  |  | 21% |  |
| CS(=O)(=O)c1ccc(-c2c(-c3ccc(F)cc3)sc3c2COC3=O)cc1 [Example 6, 2-(4-Fluorophenyl)-3-(4-(methylsulfonyl)phenyl)-4H-thieno[2,3-c]furan-6-one] |  |  |  |  | inhibition at 0.015 µM ([1]; Conc. 15 nM): 50%; inhibition at 0.015 µM ([2]; Conc. 15 nM): 0% |
| CS(=O)(=O)c1ccc(-c2c(-c3ccc(F)cc3)[nH]c3ccccc23)cc1 [Example 4, 2-(4-Fluorophenyl)-3-(4-(methylsulfonyl)phenyl)indole] |  |  | 0% |  | inhibition at 0.01 µM ([1]; Conc. 10 nM): 58% |
| CS(=O)(=O)c1ccc(C2=C(c3ccccc3)C(=O)c3ccccc32)cc1 [Example 3, 3-(4-(Methylsulfonyl)phenyl)-2-phenylinden-1-one] | 80% |  |  | 5% |  |
| CS(=O)(=O)c1ccc(-c2c(-c3ccccc3)sc3ccccc23)cc1 [Example 2, 3-(4-(Methanesulfonyl)phenyl)-2-phenylbenzo[b]thiophene] |  | 17% | 3% |  |  |

Second part, led by results:

| inhibition at 0.1 µM [1] | inhibition at 1 µM [1] | inhibition at 1 µM [2] | inhibition at 0.1 µM [2] | Compound | further results |
| --- | --- | --- | --- | --- | --- |
| 65% | 91% | 28% |  | CS(=O)(=O)c1ccc(-c2c(-c3ccccc3)sc3c2CC(=O)OC3)cc1 [Example 10, 3-(4-(Methylsulfonyl)phenyl)-2-phenyl-4,7-dihydro-thieno[2,3-c]pyran-5-one] |  |
| 64% | 100% | 4% |  | CS(=O)(=O)c1ccc(-c2c(-c3ccc(F)c(F)c3)sc3c2COC3=O)cc1 [Example 7, 2-(3,4-Difluorophenyl)-3-(4-(methylsulfonyl)phenyl)-4H-thieno[2,3-c]-furan-6-one] |  |
| 98% | 99% | 21% |  | NS(=O)(=O)c1ccc(-c2c(-c3ccc(F)c(F)c3)sc3c2COC3=O)cc1 [Example 9, 2-(3,4-Difluorophenyl)-3-(4-(aminosulfonyl)phenyl)4H-thieno-[2,3-c]furan-6-one] |  |
| 42% |  |  |  | NS(=O)(=O)c1ccc(-c2c(-c3ccc(F)cc3)sc3c2COC3=O)cc1 [Example 8, 2-(4-Fluorophenyl)-3-(4-(aminosulfonyl)phenyl)-4H-thieno[2,3-c]furan-6-one] | inhibition at 10 µM ([2]; Conc. 10000 nM): 26% |
